# Measured values published in patent US20100022559A1, “BISOXIMES AS FUNGICIDES” (BAYER CROPSCIENCE AG, priority 2006, published 2010).
# Assay: logP determination by HPLC on a reversed-phase column (C 18), EEC Directive 79/831 Annex V.A8
# Format: physicochemical
# Experimental: The stated logP values were determined in accordance with EEC Directive 79/831 Annex V.A8 by HPLC (high performance liquid chromatography) on a reversed-phase column (C 18). Temperature: 43° C.
# [1] = method marker [b], isomer A / isomer B / isomer mixture as noted in the cell
# [2] = method marker [a] (footnote not shown), isomer A / isomer B / isomer mixture as noted in the cell
# [3] = [a] acidic range, pH 2.3, 0.1% aqueous phosphoric acid and acetonitrile
structure (smiles),measurement,setting,value
CC(=NOCC1(CON=C(C)c2ccc(C)c(C)n2)CC(c2ccc(Cl)cc2)=NO1)c1ccc(C)c(C)n1 (centres unmarked) [compound 633],logP,method marked [b] in Table 1,4.51^[b]
CC(=NOCCCCCCON=C(C)c1ccccc1Cl)c1cccc(C)n1 [compound 391],logP,value marked [b],5.84^[b]
CC(=NOCC1(CON=C(C)c2cc(C)cc(C)n2)COC(=O)N1)c1cc(C)cc(C)n1 (centres unmarked) [compound 858],logP,value marked [b],1.43^[b]
same,logP,value marked [c],"3,55^[c]"
"CCC(=NOCC(C)CON=C(CC)c1cc(C)cc(C)n1)c1cc(C)cc(C)n1 (single isomer, unassigned) [compound 691]",logP,method marked [a] in Table 1,2.75^[a] (isomer A)
CC(=NOCCCCON=C(c1cccc(C)n1)C(C)C)c1cccc(C)n1 [compound 334],logP,value marked [b],4.72^[b] (isomer B)
CC(=NOCC(C)CON=C(C)c1cc(C)cc(C)n1)c1cccc(C)n1 (centres unmarked) [Compound 499],logP,value marked [b],2.76^[b]
CCC(CC)(CON=C(C)c1nc(C)ccc1C)CON=C(C)c1nc(C)ccc1C [compound 812],logP,value marked [b],5.24^[b]
same,logP,value marked [c],6.66^[c]
Cc1cccc(C(=NOCC(C)CON=C(c2ccccc2)c2cccc(C)n2)c2ccccc2)n1 (mixture of isomers) [Compound 659],logP,method marked [a] in Table 1,4.09^[a]
CC(=NOCCCCON=C(C)c1ccnc(C)n1)c1cccc(C)n1 [compound 336],logP,value marked [b],3.28^[b]
CC(=NOCCCCON=C(C)c1ncccc1C)c1cccc(C)n1 [compound 451],logP,value marked [b],3.02^[b]
Cc1nc(/C(N)=N/OCCCCO/N=C(\N)c2nc(C)c3c(n2)CCCC3)nc2c1CCCC2 [compound 36],logP,[1],2.58^[b]
CCOC(=O)C(C)(CON=C(C)c1ccc(C)c(C)n1)CON=C(C)c1ccc(C)c(C)n1 (centres unmarked) [compound 854],logP,value marked [b],3.85^[b]
same,logP,value marked [c],5.82^[c]
C=C(CON=C(C)c1nc(C)cc(OC)n1)CON=C(C)c1nc(C)cc(OC)n1 [compound 64],logP,[1],3.17^[b]
CC(=NOCCCON=C(C)c1ccc(C)cn1)c1ccc(C)cn1 [Compound 81],logP,[2],2.90^[a]
CC(=NOCCCCON=C(c1ccccc1)c1ncccc1C)c1cccc(C)n1 [compound 325],logP,value marked [b],3.89^[b]
CC(=NOCCCCON=C(C)c1cccc(C)n1)c1ccccc1 [compound 385],logP,value marked [b],4.68^[b]
CC(=NOCCC(C)ON=C(C)c1cc(C)cc(C)n1)c1cc(C)cc(C)n1 (centres unmarked) [Compound 558],logP,method marked [b] in Table 1,2.00^[b]
same,logP,method marked [c] in Table 1,6.11^[c]
C/C(=N\OCC1(CO/N=C(\C)c2cccc(C)n2)CC(c2cccc(Cl)c2)=NO1)c1cccc(C)n1 [compound 603],logP,method marked [b] in Table 1,4.67^[b]
CC(=NOCC1(CON=C(C)c2cc(C)cc(C)n2)CC(C(C)C)=NO1)c1cc(C)cc(C)n1 (centres unmarked) [compound 638],logP,method marked [b] in Table 1,2.18^[b]
CCc1ccnc(C(C)=NOCC(C)CON=C(C)c2cc(CC)ccn2)c1 (centres unmarked) [compound 105],logP,[2],3.62^[a]
CC(=NOCCCCCCON=C(C)c1cccc2ccccc12)c1cccc(C)n1 [compound 395],logP,value marked [b],6.16^[b]
CC(=NOCC(CON=C(C)c1cc(C)cc(C)n1)C(C)C)c1cc(C)cc(C)n1 (centres unmarked) [Compound 682],logP,method marked [b] in Table 1,3.12^[b]
same,logP,method marked [c] in Table 1,7.09^[c]
C=C(CON=C(C)c1cccc(C)n1)CON=C(Cl)c1ccc(C)c(C)n1 [Compound 807],logP,value marked [a],3.8^[a]
CC(=NOCCCCCCON=C(C)c1cccc(C)n1)c1ccccc1 [compound 397],logP,value marked [b],5.78^[b]
CC(=NOCCCON=C(C)c1nc(C)c(C)cc1C)c1nc(C)c(C)cc1C [compound 256],logP,value marked [a],1.84^[a]
Cc1cccc(C(CS(C)(=O)=O)=NOCC(C)CON=C(CS(C)(=O)=O)c2cccc(C)n2)n1 (centres unmarked) [compound 137],logP,[2],3.08^[a]
CC(=NOCC(=O)CON=C(C)c1cccc(C)n1)c1cccc(C)n1 [compound 71],logP,[1],2.20^[b]
CCCc1cccc(C(C)=NOCCCCON=C(C)c2cccc(C)n2)n1 [compound 450],logP,value marked [b],5.48^[b]
Cc1nc(/C(N)=N/OCc2cccc(CO/N=C(\N)c3nc(C)c4c(n3)CCCC4)c2)nc2c1CCCC2 [compound 712],logP,method marked [b] in Table 1,3.09^[b]
"CC(=NOC/C=C/CON=C(C)c1nc(C)c(C)s1)c1nc(C)c(C)s1 (single isomer, unassigned) [compound 767]",logP,value marked [b],4.92^[b] (isomer B)
Cc1cccnc1C(=NOCCCON=C(c1ncccc1C)C(C)C)C(C)C (mixture of isomers) [compound 92],logP,[2],4.13^[a]
CC(=NOCON=C(C)c1cccc(C)n1)c1cccc(C)n1 [compound 7],logP,[1],2.39^[b]
C=C(CON=C(C)c1cccc(C)n1)CON=C(C)c1cccc(CC(C)C)n1 [compound 352],logP,value marked [b],6.03^[b]
C=CCCC(=NOCC(C)CON=C(C)c1cccc(C)n1)c1ncccc1C (centres unmarked) [compound 424],logP,value marked [b],4.10^[b]
C=C(CON=C(C)c1cccc(CCC)n1)CON=C(C)c1cccc(CCC)n1 [Compound 62],logP,[1],6.89^[b]
COCc1cc(C)nc(C(C)=NOCC(C)CON=C(C)c2cc(COC)cc(C)n2)c1 (centres unmarked) [Compound 871],logP,value marked [b],4.06^[b]
same,logP,value marked [c],5.57^[c]
CC(=NOCC(C)CON=C(C)c1ccc(C)c(C)n1)c1cc(C)cc(C)n1 (racemic) [Compound 694],logP,method marked [b] in Table 1,2.63^[b]
same,logP,method marked [c] in Table 1,6.17^[c]
CC(=NOCC1CCCCC1ON=C(C)c1cccc(C)n1)c1cccc(C)n1 (centres unmarked) [Compound 823],logP,value marked [a],5.9^[a]
CCC(=NOCC1(CON=C(CC)c2cccc(C)n2)CC(CC(C)C)=NO1)c1cccc(C)n1 (centres unmarked) [compound 609],logP,method marked [b] in Table 1,5.21^[b]
CCC(=NOCCCCON=C(C)c1cccc(C)n1)c1cccc(C)n1 [compound 333],logP,value marked [b],4.10^[b]
CC(=NOC(C)CC(C)ON=C(C)c1cccc(C)n1)c1cccc(C)n1 (centres unmarked) [Compound 248],logP,[1],4.10^[b]
"Cc1cccnc1C(CC(C)C)=NOCC(C)CON=C(CC(C)C)c1ncccc1C (single isomer, unassigned) [compound 110]",logP,[2],5.78^[a] (isomer A)
C=C(CON=C(C)c1ccc(C)cn1)CON=C(C)c1cccc(C)n1 [compound 209],logP,[1],3.33^b]
Cc1nc(/C(N)=N/OCO/N=C(\N)c2nc(C)c(Cl)c(C)n2)nc(C)c1Cl [compound 41],logP,[1],2.36^[b]
C=C(CON=C(c1cccc(C)n1)C1CC1)CON=C(c1cccc(C)n1)C1CC1 (mixture of isomers) [Compound 312],logP,value marked [a],3.10^[a]
CC(=NOCC1(CON=C(C)c2cccc(C)n2)COC(=O)N1)c1cccc(C)n1 (centres unmarked) [compound 856],logP,value marked [b],1.99^[b]
same,logP,value marked [c],2.97^[c]
C=C(CON=C(C)c1cccc(C)n1)CON=C(C)c1cccc(Cc2ccccc2)n1 [Compound 350],logP,value marked [b],5.71^[b]
CC(=NOCC(C)CON=C(C)c1cccc(C)n1)c1ccc(Cl)cc1 (centres unmarked) [compound 496],logP,value marked [b],5.78^[b]
CC(=NOCCCON=C(C)c1nc(C)cs1)c1nc(C)cs1 [compound 87],logP,[2],4.22^[a]
COc1ccc(C(C)=NOCC(C)(C)CON=C(C)c2cccc(C)n2)cc1OC [compound 414],logP,value marked [b],4.57^[b]
CC(=NOCCON=C(C)c1nc(C)cs1)c1nc(C)cs1 [compound 52],logP,[1],3.63^[b]
CC(=NOC[C@@H]1O[C@@H]1CON=C(C)c1cccc(C)n1)c1cccc(C)n1 [compound 287],logP,value marked [b],2.42^[b]
CC(=NOCCCCON=C(C)c1cccc(C)n1)c1cccc(C(F)(F)F)c1 [Compound 375],logP,value marked [b],5.54^[b]
Cc1cccc(C(=NOCCCON)C(C)C)n1 [XII-2],logP,[3],1.05^[a]
CC(=NOC(=O)NCCCCNC(=O)ON=C(C)c1cccc(C)n1)c1cccc(C)n1 [compound 864],logP,value marked [a],1.97^[a]
COc1cccc(C(C)=NOCC(C)(C)CON=C(C)c2cccc(C)n2)c1 [compound 484],logP,value marked [b],5.31^[b]
CCOc1cc(C)nc(C(C)=NOCC(C)(C)CON=C(C)c2cc(OCC)cc(C)n2)c1 [Compound 841],logP,value marked [a],2.00^[a]
same,logP,value marked [c],6.90^[c]
CC(=NOCCCON=C(C)c1csc(Cl)n1)c1csc(Cl)n1 (mixture of isomers) [compound 232],logP,[2],4.69^[a]
CCc1cccc(C(C)=NOCCCON=C(C)c2cccc(CC)n2)n1 [Compound 180],logP,[2],5.43^[a]
CC(=NOCCCCCCON=C(C)c1ncccc1C)c1cccc(C)n1 [compound 464],logP,value marked [b],4.25^[b]
CC(=NOCON=C(C)c1ccccn1)c1ccccn1 [Compound 59],logP,[1],2.23^[b]
"CCCC(=NOCC(C)CON=C(C)c1cccc(C)n1)c1ncccc1C (single isomer, unassigned) [compound 549]",logP,method marked [b] in Table 1,4.68^[b] (isomer B)
CC(=NOCc1cccc(CON=C(C)c2cc(C)cc(C)n2)n1)c1cc(C)cc(C)n1 [compound 742],logP,method marked [c] in Table 1,4.96^[c]
C(=NOCCON=Cc1ccccn1)c1ccccn1 [compound 665],logP,method marked [b] in Table 1,1.68^[b]
CC(=NOCC(C)CON=C(C)c1cc(C)cc(C)n1)c1cc(C)cc(C)n1 (centres unmarked) [Compound 225],logP,[2],2.11^[a]
CC(=NOCCC(C)ON=C(C)c1ccc(C)c(C)n1)c1ccc(C)c(C)n1 (centres unmarked) [Compound 519],logP,value marked [b],2.75^[b]
same,logP,value marked [c],6.27^[c]
CC(=NOCC(C)(C)CON=C(C)c1cccc(Cl)n1)c1cccc(Cl)n1 [compound 569],logP,method marked [a] in Table 1,6.50^[a]
C=C(CON=C(C)c1cccc(C)n1)CON=C(C)c1ccc2ccccc2n1 [Compound 202],logP,[1],5.25^[b]
C/C(=N\OCC(C)(C)CON)c1ccc(C)c(C)n1 [XII-6],logP,[3],0.98^[a]
same,logP,"[b] LC-MS, acidic range, pH 2.7, 0.1% aqueous formic acid and acetonitrile",0.98^[b]
same,logP,"[c] LC-MS, neutral range, pH 7.8, 0.001 molar aqueous ammonium bicarbonate solution and acetonitrile",2.94^[c]
CC(=NOCC(C)(C)CON=C(C)c1cccnc1C)c1cccc(C)n1 [compound 488],logP,value marked [b],2.20^[b]
CC(=NOCC(C)CON=C(C)c1ccnc(C)n1)c1ccnc(C)n1 (centres unmarked) [compound 168],logP,[2],3.57^a]
COc1ccc(C(C)=NOCC(C)CON=C(C)c2ccc(OC)c(C)n2)nc1C (centres unmarked) [Compound 825],logP,value marked [b],5.21^[b]
same,logP,value marked [c],5.58^[c]
CC(=NOCCCON=C(C)c1cc(-c2ccccc2)ccn1)c1cc(-c2ccccc2)ccn1 [compound 132],logP,[2],5.74^[a]
